Reference: patent US20080286282A1, “Novel Use of Sulfonamide Compound in Combination with Angiogenesis Inhibitor” (Eisai R & D Management Co., Ltd., priority 2005, published 2008)
Read-outs that look alike come from different tables or passages of the source.

Key:
[1] = tested on: HCT116-C9; experiment: Cell growth inhibition assay (MTT, 72 h) on HCT116-C9; format: cell-based; conditions: Homo sapiens
Method: (§1) An E7070-resistant cell line was used to assess the antiproliferative activities of E7820, LY186641, LY295501, LY-ASAP and CQS. HCT116-C9 was a substrain separated from human colon cancer-derived HCT116 (American Type Culture Collection, Manassas, Va., U.S.A.). This HCT116-C9 was cultured in the presence of E7070 while increasing the E7070 concentration by degrees, thereby obtaining E7070-resistant substrains HCT116-C9-C1 and HCT116-C9-C4 (Molecular Cancer Therapeutics, 2002, 1, 275-286).
(§2) Three cell lines, i.e., HCT116-C9, HCT116-C9-C1 and HCT116-C9-C4, were each seeded at 3000 cells/well onto a 96-well microplate (flat bottom) (50 μl/well). Twenty-four hours later, they were added with a 3-fold dilution series of each compound (50 μl/well). Seventy-two hours later, the antiproliferative activities were assessed by MTT method (Mossmann T., J. Immunol. Methods, 1983, 65, 55-63). The 50% growth inhibitory concentrations to the cancer cells were obtained by a least square method.
(§3) In exactly the same manner as in Example 6, an E7070-resistant cell line was used to assess the antiproliferative activities of LY573636 as well as those of E7070.

[2] = tested on: HCT116-C9-C1; experiment: Cell growth inhibition assay (MTT, 72 h) on E7070-resistant HCT116-C9-C1; format: cell-based; conditions: Homo sapiens
Method: as §1, §2, §3

[3] = tested on: HCT116-C9-C4; experiment: Cell growth inhibition assay (MTT, 72 h) on E7070-resistant HCT116-C9-C4; format: cell-based; conditions: Homo sapiens
Method: as §1, §2, §3

[4] = tested on: human colon cancer cell line (Colo320DM); experiment: Subcutaneous transplant model of human colon cancer cell line Colo320DM, E7820 and Bevacizumab (Example 2); format: in vivo; conditions: Colo320DM s.c. in nude mouse; E7820 200 mg/kg twice a day orally 3 weeks; Bevacizumab 25 mg/kg twice a week i.v. 3 weeks
Method: Human colon cancer cell line Colo320DM (purchased from Dainippon Pharmaceutical) was cultured in RPMI1640 (containing 10% FBS) in a 5% carbon dioxide incubator at 37° C. to about 80% confluence, and the cells were collected with trypsin-EDTA. Using a phosphate buffer containing 50% matrigel, 5×10^7 cells/mL suspension was prepared, and 0.1 mL each of the resulting cell suspension was subcutaneously transplanted to a nude mouse at the side of its body. Seven days after the transplantation, administration of E7820 (200 mg/kg, twice a day, for 3 weeks, orally administered) and administration of Bevacizumab (25 mg/kg, twice a week, for 3 weeks, intravenously administered) were initiated. The major and minor axes of tumors were measured with Digimatic caliper (Mitsutoyo), and tumor volumes and relative tumor volumes were calculated according to the following formulae.
(§4) Tumor Volume TV=Major axis of tumor (mm)×(Minor axis of tumor)^2 (mm^2)/2
(§5) Relative Tumor Volume RTV=Tumor volume on measurement day/Tumor volume on the first administration day

[5] = tested on: human renal cancer cell line (786-O); experiment: Subcutaneous transplant model of human renal cancer cell line 786-O, E7820 and Bevacizumab (Example 9); format: in vivo; conditions: 786-O s.c. in nude mouse; E7820 200 mg/kg twice a day orally 2 weeks; Bevacizumab 25 mg/kg twice a week i.v. 2 weeks
Method: (§6) Human renal cancer cell line 786-0 (obtained from ATCC) was cultured in RPMI1640 (containing 10% FBS) in a 5% carbon dioxide incubator at 37° C. to about 80% confluence, and the cells were collected with trypsin-EDTA. Using a phosphate buffer containing 50% matrigel, 1×10^8 cells/mL suspension was prepared, and 0.1 mL each of the resulting cell suspension was subcutaneously transplanted to a nude mouse at the side of its body.
Seven days after the transplantation, E7820 and Bevacizumab were administered alone or in combination. E7820 was orally administered at 200 mg/kg twice a day for 2 weeks while Bevacizumab was intravenously administered at 25 mg/kg twice a week for 2 weeks.
The major and minor axes of tumors were measured with Digimatic caliper (Mitsutoyo), and tumor volumes and relative tumor volumes were calculated according to the following formulae.
as §4, §5

[6] = tested on: human colon cancer cell line (Colo320DM); experiment: Subcutaneous transplant model of human colon cancer cell line Colo320DM, E7070 and Bevacizumab (Example 8); format: in vivo; conditions: Colo320DM s.c. in nude mouse, E7070 40 mg/kg i.v. Days 1 to 5, Bevacizumab 25 mg/kg i.v. Days 1, 5, 8 and 12; for Relative Tumor Volume (RTV) Average ± standard deviation: Day 23
Method: as §6, with “colon” for “renal”, “Colo320DM (purchased” for “786-0 (obtained”, “incubator” for “incubator at 37° C.”, “Hanks balanced solution, 5×10^7” for “a phosphate buffer containing 50% matrigel, 1×10^8”
Following transplantation, E7070 (40 mg/kg/day) and Bevacizumab (25 mg/kg/day) were administered alone or in combination when the average tumor volume became 259 mm^3.
E7070 alone was intravenously administered once a day for 5 days (on Days 1 to 5). On the other hand, Bevacizumab alone was intravenously administered twice a week for 2 weeks (on Days 1, 5, 8 and 12).
For the combinational use group, E7070 was intravenously administered on Days 1 to 5 while Bevacizumab was intravenously administered on Days 1, 5, 8 and 12.
The major and minor axes of tumors were measured twice a week from the initiation of administration with Digimatic caliper (Mitsutoyo), and tumor volumes were calculated according to the following formula.
as §4
The following two values were used for judging an anti-tumor effect.
Tx4: time (days) required for the tumor to grow to four times the initial tumor volume
RTV: Relative tumor volume (RTV)* on Day 23
*RTV=Tumor volume on Day 23/Initial tumor volume on Day 1

[7] = Example 6, read-out: antiproliferative activity, IC50
[8] = Example 7, read-out: antiproliferative activity, IC50

IC50 [1, 7]	IC50 [2, 7]	IC50 [3, 7]	IC50 [1, 8]	IC50 [2, 8]	IC50 [3, 8]	Molecule	Relative tumor volume on Day 22 Average ± standard deviation [4]	Relative tumor volume on Day 22 Average ± standard deviation [5]	Tx4 Average ± standard deviation (time required for the tumor to grow to four times the initial tumor volume) [6]	Relative Tumor Volume (RTV) Average ± standard deviation [6]
10.9 µM	111 µM	110 µM				O=C(Nc1ccc(Cl)c(Cl)c1)NS(=O)(=O)c1ccc2c(c1)CCO2 [LY295501, N-[[(3,4-dichlorophenyl)amino]carbonyl]-2,3-dihydrobenzofuran-5-sulfonamide]				
33.6 µM	134 µM	138 µM				O=C(Nc1ccc(Cl)cc1)NS(=O)(=O)c1ccc2c(c1)CCC2 [LY186641, N-[[(4-chlorophenyl)amino]carbonyl]-2,3-dihydro-1H-indene-5-sulfonamide]				
1.63 µM	113 µM	90.3 µM				O=C(NS(=O)(=O)c1ccc(Cl)cc1)c1ccc(Cl)cc1Cl [LY-ASAP, N-(2,4-dichlorobenzoyl)-4-chlorophenylsulfonamide]				
			5.11 µM	264 µM	240 µM	O=C(NS(=O)(=O)c1ccc(Br)s1)c1ccc(Cl)cc1Cl [LY573636, N-(2,4-dichlorobenzoyl)-5-bromothiophene-2-sulfonamide]				
1.73 µM	634 µM	517 µM				Nc1ccc(S(=O)(=O)Nc2cnc3c(Cl)cccc3n2)cc1 [CQS, 2-sulfanylamide-5-chloroquinoxaline]				
0.08 µM	51.2 µM	52.8 µM				Cc1ccc(NS(=O)(=O)c2cccc(C#N)c2)c2[nH]cc(C#N)c12 [E7820, N-(3-cyano-4-methyl-1H-indole-7-yl)-3-cyanobenzenesulfonamide]	6.1 ± 1.8	0.6 ± 0.1		
						Bevacizumab: human anti-VEGF (Vascular Endothelial Growth Factor) monoclonal antibody, obtained by purchasing Avastin from Genentech	5.1 ± 0.8	1.8 ± 0.2	26.3 ± 2.8 days	2.84 ± 0.68
0.127 µM	31.9 µM	26.9 µM		32.7 µM	28 µM	NS(=O)(=O)c1ccc(S(=O)(=O)Nc2cccc3c(Cl)c[nH]c23)cc1 [E7070, N-(3-chloro-1H-indole-7-yl)-4-sulfamoylbenzenesulfonamide]			27.0 ± 3.4 days	2.70 ± 0.97
